Source: ChEMBL document CHEMBL2163346, “Acetylcholinesterase inhibitors from the leaves of Macaranga kurzii” (J Nat Prod, 2012)
Active and inactive are the calls of the source. The rule behind the calls is not given here.

How the values were obtained:
KB [1] = assay: Cytotoxicity against human KB cells at 20 uM after 72 hrs by neutral red staining; format: functional, cell-based
Acetylcholinesterase = Acetylcholinesterase (Electrophorus electricus, UniProt O42275)
Description: Inhibition of Electrophorus electricus C2888 AChE using acetylthiocholine iodide as substrate by Ellman's spectroscopic method

KB [2] = assay: Cytotoxicity against human KB cells after 72 hrs by neutral red staining; format: functional, cell-based
[3] = target: Acetylcholinesterase (Electrophorus electricus) (UniProt O42275); settings: C2888, 50 uM
Chain of Acetylcholinesterase (Electrophorus electricus) (O42275 24-633 limits assumed): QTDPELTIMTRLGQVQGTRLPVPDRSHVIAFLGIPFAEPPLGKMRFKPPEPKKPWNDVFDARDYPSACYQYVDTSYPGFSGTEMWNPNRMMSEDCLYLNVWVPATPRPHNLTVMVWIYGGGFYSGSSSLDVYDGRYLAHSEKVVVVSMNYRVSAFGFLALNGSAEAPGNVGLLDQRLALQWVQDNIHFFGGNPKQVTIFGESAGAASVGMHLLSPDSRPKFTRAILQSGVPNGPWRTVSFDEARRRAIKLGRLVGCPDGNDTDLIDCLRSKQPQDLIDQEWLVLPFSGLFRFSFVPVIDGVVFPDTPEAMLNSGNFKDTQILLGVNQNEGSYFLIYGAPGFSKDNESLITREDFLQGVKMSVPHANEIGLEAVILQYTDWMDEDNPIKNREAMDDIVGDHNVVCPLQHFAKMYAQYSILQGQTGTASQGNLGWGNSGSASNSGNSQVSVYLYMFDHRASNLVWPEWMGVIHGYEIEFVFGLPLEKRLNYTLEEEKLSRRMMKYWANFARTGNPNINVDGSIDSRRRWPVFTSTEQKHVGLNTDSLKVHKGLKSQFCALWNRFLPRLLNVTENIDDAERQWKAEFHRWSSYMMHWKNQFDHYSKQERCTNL
Description: Inhibition of Electrophorus electricus C2888 AChE using acetylthiocholine iodide as substrate at 50 uM by Ellman's spectroscopic method

Chain of Acetylcholinesterase (O42275 whole entry): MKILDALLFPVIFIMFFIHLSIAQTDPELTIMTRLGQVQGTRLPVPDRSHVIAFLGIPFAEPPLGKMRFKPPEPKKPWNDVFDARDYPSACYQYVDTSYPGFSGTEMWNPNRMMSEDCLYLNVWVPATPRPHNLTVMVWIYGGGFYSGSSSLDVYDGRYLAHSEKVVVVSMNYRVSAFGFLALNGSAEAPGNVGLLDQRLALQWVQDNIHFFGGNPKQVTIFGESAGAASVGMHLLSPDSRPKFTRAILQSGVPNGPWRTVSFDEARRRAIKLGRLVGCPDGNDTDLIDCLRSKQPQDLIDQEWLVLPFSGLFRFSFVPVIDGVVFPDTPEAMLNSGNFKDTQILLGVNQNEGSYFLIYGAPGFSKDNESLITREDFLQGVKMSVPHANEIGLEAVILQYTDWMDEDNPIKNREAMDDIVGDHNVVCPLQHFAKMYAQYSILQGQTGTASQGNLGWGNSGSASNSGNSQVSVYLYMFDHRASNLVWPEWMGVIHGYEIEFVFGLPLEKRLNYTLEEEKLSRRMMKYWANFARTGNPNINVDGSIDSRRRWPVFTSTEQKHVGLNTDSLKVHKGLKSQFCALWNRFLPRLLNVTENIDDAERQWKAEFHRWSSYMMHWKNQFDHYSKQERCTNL

| SMILES | Activity (KB [1]) | IC50 (Acetylcholinesterase) [µM] | IC50 (KB [2]) [µM] | inhibition [3] |
| --- | --- | --- | --- | --- |
| COc1cc(O)c2c(=O)c(O)c(-c3ccccc3)oc2c1 | inactive | – | – | – |
| O=c1c(O)c(-c2ccccc2)oc2cc(O)cc(O)c12 | inactive | – | – | – |
| CC(C)=CCc1c(O)cc(O)c2c1O[C@H](c1ccccc1)CC2=O [GLABRANIN] | inactive | 23 | – | – |
| CC1(C)Oc2cc3oc(-c4ccccc4)c(O)c(=O)c3c(O)c2CC1O (racemic) | – | – | 13 | – |
| COc1cc(/C=C/c2ccccc2)c(CC=C(C)C)c(OC)c1 | – | 19 | 4 | – |
| CC(C)=CCc1c(O)cc2oc(-c3ccccc3)c(O)c(=O)c2c1O | – | – | 10 | – |
| COc1cc(/C=C/c2ccccc2)cc(OC)c1 [3,5-O-DIMETHYLPINOSYLVIN] | inactive | 9 | – | – |
| CC1(C)C=Cc2c(cc3oc(-c4ccccc4)c(O)c(=O)c3c2O)O1 [MACAKURZIN C] | inactive | 20 | – | inactive |
| CC(C)=CCc1c(O)cc2c(c1O)C(=O)C[C@@H](c1ccccc1)O2 | inactive | 18 | – | – |
| CC(C)=CCc1c(O)cc(O)c2c(=O)c(O)c(-c3ccccc3)oc12 | inactive | – | – | – |
| Oc1cc(/C=C/c2ccccc2)c2ccoc2c1 [FURANOKURZIN] | inactive | 42 | – | – |
| C=C(C)C(O)Cc1c(O)cc2oc(-c3ccccc3)c(O)c(=O)c2c1O (racemic) | inactive | – | – | – |
| COc1cc(/C=C\c2ccccc2)cc(OC)c1 | inactive | – | – | – |
